Test results taken from patent US20070071783A1, “Pheromone attractants for the green mirid” (priority 2004, published 2007).
Marks after values point to notes of the source that are not given here.

Legend:
[1] = system: mullein bug, Campylomma verbasci; conditions: blend released at rates of 91 and 183 μL per day; Smith et al. 1991, McBrien et al. 1994; cited from earlier work
[2] = system: Phytocoris relativus; conditions: Millar & Rice 1998; cited from earlier work
[3] = system: Phytocoris californicus; conditions: Millar & Rice 1998; Millar et al. 1997; cited from earlier work
[4] = system: green mirid, Creontiades dilutus; assay: Field trapping bioassays: rubber septa lures in delta traps; assay type: in vivo; conditions: Experiment 1, soybeans, Cecil Plains; for Mean trap catch: 2 mg lure, mean ± s.e.
Protocol: A series of trials involving blends of the major component, hexyl hexanoate and the minor component (E)-2 hexenyl hexanoate in various ratios, as coded and presented in Table 1, as well as the single components, were tested in a series of field trapping experiments. After the initial optimisation, two other components (methyl salicylate and (Z)-3 hexenyl acetate), found in both the male and female extracts, were tested by adding them to the optimised blend.
Lures were prepared using rubber septa. Each lure was loaded with 2 mg of the blend with 10% butylated hydroxytoluene (BHT) added as an anti-oxidant. Control lures were loaded with BHT only.
Field experiments were conducted at Cecil Plains (Qld), Narrabri, Tamworth, Mullaley and Armidale (NSW). The experimental designs were Latin Squares with treatment (pheromone blend), trap position and day as the factors. Traps were placed in a grid at intervals of 25-50 m, cleared daily, and rotated to different positions in the Latin Square designs. Delta traps made out of plastic (Corflute®) were used.
This experiment aimed to test blends against individual components of the female sex pheromone. A 4×4 Latin square design with 4 rotation periods, 4 blend locations and 4 treatments was set up in soybeans in Cecil Plains. Traps were located 100 m from each other and cleared every day before rotation. […] They were only caught in traps baited with the blend GM1 at an average of 3.9 males per trap. All insects caught were sexed morphologically and found to be males. […]
A 3×3 Latin Square experiment, replicated at two different sites in mung beans and one site in a slashed lucerne field was set up in Mullaley, NSW. This experiment involved blends GM2, GM12, GM13. In the mung beans at Site 1, blend type was the only significant factor (P<0.01).
Blends GM2, GM12, GM17 and GM19 were tested in a 4×4 Latin Square experiment in lucerne at Piallamore, NSW. […] Analysis of variance on the logarithmically transformed data indicated no significant differences (P>0.05) between the blends.
This experiment aimed at testing the effect of septa loading on trap catches. It involved the use of blend GM2 with a 2, 20 and 40 mg loading respectively. The ratio of hexyl hexanoate to (E)-2-hexenyl acetate in all blends was 5:1. The design was a 3×3 Latin Square set up at two different sites in mung beans at Mullaley, NSW. […] Trap location and day were also non significant (Table 11).
This experiment aimed at testing the effects of methyl salicylate and (Z)-3 hexenyl acetate, identified in both male and female extracts on the optimised blend. The hypothesis was that they might increase the attractiveness of the blend. Blends GM2, GM14, GM15 and GM16 were used in a 4×4 Latin Square experiment conducted in lucerne at Piallamore, NSW. […]

[5] = system: green mirid, Creontiades dilutus; assay: Attract-and-kill Experiment 1: sprayed-on formulation with added insecticide (methomyl); assay type: in vivo; conditions: pigeon peas, Mullaley, about 2.3% volatiles in carrier, methomyl 0.5%, 5 m of row
From the text: The trial was set up in late flowering pigeon peas near Mullaley, NSW. The pheromone components were mixed with the formulation base from Magnet®, the commercial embodiment of the compositions described in WO 02/089577, the contents of which are incorporated herein by reference.
The plant volatile components of Magnet® were not included. The toxicant was methomyl at a concentration of 0.5% active ingredient.
There were four treatments: • 1) Control (no pheromone components added; carrier only) • 2) 12 ml hexyl hexanoate added to 500 ml of carrier • 3) 12 ml (E)-2 hexenyl hexanoate added to 500 ml of carrier • 4) 10 ml hexyl hexanoate plus 2 ml (E)-2 hexenyl hexanoate added to 500 ml carrier
Thus, in treatments 2-4 the final concentration of volatile pheromone components was about 2.3%. Treatment 4 had the two components in the optimum ratio as determined by trapping experiments.
Approximately 100 ml of each mixture was applied to 5 m of row of the pigeon peas, being shaken from a plastic bottle onto the tops of the plants. There were three replicates of each treatment, with buffer zones of 20 m surrounding them. Black plastic weed mat, 90 cm wide, was placed in the furrows on both sides,of the treated rows. It was secured around the bases of the plants using clothes pegs. This was done to facilitate finding dead GM. The treated areas were searched each morning over the next three days, and any dead GM found were sexed. Two pheromone traps, using blend GM2 as previously described, were also operated near the experimental site. At the conclusion of the experiment, five replicate samples using beat sheets were taken in the vicinity of the sprayed regions.

[6] = Day 1, standard error in brackets

SMILES: C/C=C/COC(=O)CCC [(E)-2-butenyl butyrate]
- Attractiveness of lures in field studies [1]: inactive

SMILES: CCCCC/C=C/COC(C)=O [(E)-2-octenyl acetate]
- Inhibition of P. relativus males [2]: did not inhibit

SMILES: CCCCC/C=C/COC(=O)CCC [(E)-2-octenyl butyrate]
- Inhibition of attraction of P. californicus males to traps [3]: inhibited attraction

SMILES: CCCCCCOC(=O)CCCCC [GM5, hexyl hexanoate]
- GM caught in baited traps, average [4]: did not attract any GM
- Mean trap catch [4]: 0.0 ± 0^b
- Mean number of female adults found (killed) [5, 6]: 1.3 (0.3)
- Mean number of male adults found (killed) [5, 6]: 1.3 (0.3)
- Mean number of nymphs found (killed) [5, 6]: 0.3
- Mean number of female adults found (killed) ([5]; Day 2): 0
- Mean number of male adults found (killed) ([5]; Day 2): 0
- Mean number of nymphs found (killed) ([5]; Day 2): 0

SMILES: CCC/C=C/COC(=O)CCCCC [GM6, (E)-2-hexenyl hexanoate]
- GM caught in baited traps, average [4]: did not attract any GM
- Mean trap catch [4]: 0.0 ± 0^b
- Mean number of female adults found (killed) [5, 6]: 1.0 (1.0)
- Mean number of male adults found (killed) [5, 6]: 3.0 (1.1)
- Mean number of nymphs found (killed) [5, 6]: 0.3 (0.3)
- Mean number of female adults found (killed) ([5]; Day 2): 0
- Mean number of male adults found (killed) ([5]; Day 2): 1.3
- Mean number of nymphs found (killed) ([5]; Day 2): 0

SMILES: CCCCOC(=O)CCC [butyl butyrate]
- Attractiveness of lures in field studies [1]: inactive
